Here are results for 22 compounds from patent US12692253B2, “Antimicrobial compounds and methods” (Curza Global, LLC, priority 2019, dated 2026).

One assay has as its system E. coli (Ec). As to the kind of experiment: Broth microdilution minimum inhibitory concentration (MIC), CLSI. In kind it is cell-based. To be noted: growth medium supplemented with sodium bicarbonate; for MIC: Escherichia coli, read-out: E. coli + bicarb MIC. As for the experimental part: (§1) A certified BSL-2 laboratory was used for testing. Compounds were evaluated using the broth microdilution minimum inhibitory concentration (MIC) and minimum bactericidal concentration (MBC) assays defined by Clinical and Laboratory Standards Institute (CLSI) in the M26-A guideline against S. aureus (Sa), E. coli (Ec), K. pneumoniae (Kp), A. baumannn (Ab), E. faecalis (Ef) and P. aeruginosa (Pa).
(§2) MICs were determined using the Clinical Laboratory and Standards Institute (CLSI) Broth Microdilution Method with slight modification. Clinical and Laboratory Standards Institute (2012). “Methods for dilution antimicrobial susceptibility tests for bacteria that grow aerobically; approved standard, 9th ed. M07-A9 Clinical and Laboratory Standards Institute, Wayne, PA” Serial two-fold dilutions of compounds are prepared in sterile clear round-bottom 96-well plates.
(§3) To prepare microdilution trays, two-fold dilutions of antimicrobial agent are prepared in growth medium: Cation-Adjusted Mueller-Hinton Broth (CAMHB), or CAMHB supplemented with sodium bicarbonate (6.25 or 25 mM final concentration prepared from a 1.0M stock solution) or CAMHB supplemented with heat inactivated human serum (Fisher Cat. #BP2657100) 0-50% by adding 200 µL of the highest concentration to be tested (64 μg/mL, for example) in row A, mixing and transferring 100 μL from row A to 100 μL growth medium in row B, then repeating the mixing and transferring through row H of the 96-well plate, discarding the excess […] remaining. This slight modification to the CLSI protocol enables evaluation of MICs for 3 compounds per plate in triplicate, albeit with only 8 compound dilutions (CLSI protocol enables 2 compounds in triplicate with 10 dilutions). Bacterial suspensions are added to a final concentration of 5×10^4 CFU/well by adding 5 μL of a 1:10 dilution of a 0.5 McFarland suspension (1×10^8 CFU/mL) for each bacterium evaluated. Bacterial suspensions were prepared using the growth method described by CLSI. Well-isolated colonies (3-5 from an agar plate) were selected using a sterile loop and used to inoculate a tube containing 4 mL of CAMHB. The cultures are incubated at 35±2° C. until it achieves or exceeds the turbidity of the 0.5 McFarland standard, determined by measuring A600 (usually two to six hours). When growth exceeds a 0.5 McFarland standard, the turbidity is adjusted with broth to be equivalent to a 0.5 McFarland standard.
(Broth dilution looks for growth in wells or tubes with falling amounts of substance.)

Assay [1] relates to E. coli S30 extract (bacterial protein synthesis). As to the kind of experiment: E. coli S30 extract coupled transcription-translation luciferase assay (inhibition of bacterial protein synthesis). Particulars: class by IC50 or % inhibition @ 1 μM, read-out: S30 IC50 (μM/% inhib.). In kind it is biochemical. As for the experimental part: E. coli S30 extract: Inhibition of bacterial protein synthesis was determined using the E. coli S30 Extract System for Circular DNA (Promega catalog #L-2010) and Luciferase Assay Reagent (Promega catalog #E1500) with slight modifications to a published protocol. Fyfe, C., Sutcliffe, J. A. and Grossman, T. H. (2012) “Development and characterization of a Pseudomonas aeruginosa in vitro coupled transcription-translation assay system for evaluation of translation inhibitors” J. Microbiol. Methods 90(3), 256-261.
Compounds were serial diluted in 0.5 mL microcentrifuge tubes by mixing and transferring 50 μL from the highest concentration to 50 μL of water, mixing and transferring 50 μL of this 2-fold dilution to 50 μL of water. This mixing and transferring was repeated so that there are a total of 8 tubes with serial dilutions of compound at 10× the desired screening concentration that are ultimately diluted to 1× by the addition of S30 luciferase synthesis mixture. Serial dilutions of compounds were added (2 μL) to wells in a black round bottom 96-well plate. Water (2 μL) was used as a “no inhibitor” control in 4 wells/plate. No DNA control reaction mixture (20 μL; see below) was used as a control in 4 wells/plate for background luminescence. S30 luciferase synthesis mixture (18 μL; see below) was added to wells with compounds or water mixture and incubated at 37° C. for 1 hour. Reactions were stopped by transferring to 4° C. refrigerator for 5 minutes then 25 μL of luciferase activity mix was added. Luminescence was measured using a BioTek Synergy HTX plate reader. % Inhibition was determined relative to no inhibitor controls. • S30 luciferase synthesis mixture: • 445 μL S30 extract, circular • 712 μL S30 Premix without amino acids • 4.45 μL pBESTluc™ DNA (1 μg/μL) • 78 μL complete amino acid mixture • 267 μL water • No DNA control: • 20 μL S30 extract, circular • 32 μL S30 Premix without amino acids • 7 μL complete amino acid mixture • 21 μL water Rabbit Reticulocyte lysate

In assay [2] the target is Rabbit Reticulocyte Lysate (eukaryotic protein synthesis). As to the kind of experiment: Rabbit reticulocyte lysate luciferase assay (inhibition of eukaryotic protein synthesis). To be noted: class by IC50 or % inhibition @ 1 μM, read-out: Rabbit reticulocyte IC50 (μM/% inhib.). In kind it is biochemical. How it is done:
Inhibition of eukaryotic protein synthesis was determined using the Rabbit Reticulocyte Lysate System, Nuclease-Treated from Promega (catalog #L-4960) with slight modifications to the manufacturer's protocol. Compounds were serial diluted in 0.5 mL microcentrifuge tubes by mixing and transferring 50 μL from the highest concentration to 50 μL of water, mixing and transferring 50 μL of this 2-fold dilution to 50 μL of water. This mixing and transferring was repeated so that there are a total of 8 tubes with serial dilutions of compound at 10× the desired screening concentration that are ultimately diluted to 1× by the addition of rabbit reticulocyte luciferase synthesis mixture. Serial dilutions of compounds were added (2.5 μL) to wells in a black round bottom 96-well plate. Water (2.5 μL) was used as a “no inhibitor” control in 4 wells/plate. No RNA control reaction mixture (2 μL; see below) was used as a control in 4 wells/plate for background luminescence. Rabbit reticulocyte luciferase synthesis mixture (22.5 μL; see below) was added to wells with compounds or water mixture and incubated at 30° C. for 90 minutes. Luciferase assay reagent (25 μL) was added with luminescence measured using a BioTek Synergy HTX plate reader. % Inhibition was determined relative to no inhibitor controls.
Rabbit Reticulocyte Luciferase Synthesis Mixture:
• 1,000 μL rabbit reticulocyte lysate • 5.7 μL Luciferase Control RNA (1 μg/μL) • 26 μL complete amino acid mixture • 395 μL water • No RNA Control • 70 μL rabbit reticulocyte lysate • 2 μL complete amino acid mixture • 28 μL water Minimum Inhibitory Concentration (MIC)

The next assay concerns P. aeruginosa (Pa). The experiment in a line: Broth microdilution minimum inhibitory concentration (MIC), CLSI. The format is cell-based. To be noted: Pseudomonas aeruginosa, growth medium supplemented with sodium bicarbonate, read-out: Pa MIC + bicarb. As for the experimental part:
as §1, §2, §3

For orientation: MIC means the lowest concentration that inhibits growth of the organism. As to `Cc1cc(-n2ccc(NC(=O)N3CCN(C(=O)C(C)(C)N)CC3)nc2=O)ccc1CN1C[C@@H]2[C@@H](N)[C@@H]2C1` [Compound 2], in the assay on E. coli (Ec), the MIC is under 8 µg/mL. Further, the IC50 is under 0.5 µM in assay [1] and at least 1 µM in assay [2].
Turning to `CC(C)(N)C(=O)N1CCN(C(=O)Nc2ccn(-c3ccc(CN4C[C@@H]5[C@@H](N)[C@@H]5C4)c(Cl)c3)c(=O)n2)CC1` [Compound 7], the MIC was over 32 µg/mL with P. aeruginosa (Pa) and under 8 µg/mL with E. coli (Ec). For the same compound, the figures for the IC50 in assay [1] and in assay [2] were under 0.5 µM and at least 1 µM, respectively.
As for `CC(C)(N)C(=O)N1CCN(C(=O)Nc2ccn(-c3ccc(CN4C[C@H](N)C5(CC5)C4)cc3)c(=O)n2)CC1` [Compound 16], in the assay on E. coli (Ec), the MIC is 8 to 32 µg/mL. The IC50 in assay [1] and in assay [2] was at least 1 µM each time.
`C[C@](N)(CF)C(=O)N1CCN(C(=O)Nc2ccn(-c3ccc(CN4C[C@@H]5[C@@H](N)[C@@H]5C4)cc3)c(=O)n2)CC1` [Compound 18]: the minimal inhibitory concentration (MIC) in the assay with E. coli (Ec) was under 8 µg/mL. Also, the figures for the IC50 in assay [1] and in assay [2] were under 0.5 µM and at least 1 µM, respectively.
In the case of `CC(C)(N)C(=O)N1CCN(C(=O)Nc2ccn(-c3ccc(CN4C[C@@H](N)C5(CC5)C4)cc3)c(=O)n2)CC1` [Compound 19], the MIC in the assay on E. coli (Ec) is under 8 µg/mL. Also, the IC50 is 0.5 to 1 µM in assay [1] and at least 1 µM in assay [2].
`CC(C)(N)C(=O)N1CCN(C(=O)Nc2ccn(-c3ccc(CN4CCC5(CC5N)C4)cc3)c(=O)n2)CC1` (stereo not drawn) [Compound 21]: the MIC with E. coli (Ec) was under 8 µg/mL. Besides, the IC50 in assay [1] is under 0.5 µM; in assay [2], at least 1 µM.
Take `CC(C)(N)CN1CCN(C(=O)Nc2ccn(-c3ccc(CN4C[C@@H]5[C@@H](N)[C@@H]5C4)cc3)c(=O)n2)CC1` [Compound 24]: in the assay with E. coli (Ec), the MIC is under 8 µg/mL. Further, the IC50 in assay [1] is 0.5 to 1 µM; in assay [2], at least 1 µM.
For the compound `CC(C)(N)C(=O)N1CCCN(C(=O)Nc2ccn(-c3ccc(CN4C[C@@H]5[C@@H](N)[C@@H]5C4)cc3)c(=O)n2)CC1` [Compound 26], in the assay on E. coli (Ec), the MIC is under 8 µg/mL. Besides, the IC50 in assay [1] was at least 1 µM.
Consider `CC(C)(N)C(=O)N1CCN(C(=O)Nc2ccn(-c3ccc(CN4CCC5(CC4)CC5N)cc3)c(=O)n2)CC1` (stereo not drawn) [Compound 39], for which the minimal inhibitory concentration (MIC) in the assay with E. coli (Ec) was under 8 µg/mL. For the same compound, the figures for the IC50 in assay [1] and in assay [2] were under 0.5 µM and at least 1 µM, respectively.
As for `CC(C)(N)CN1CCN(C(=O)Nc2ccn(-c3ccc(CN4C[C@@H]5[C@@H](N)[C@@H]5C4)cc3)c(=O)n2)CC1=O` [Compound 47], the MIC in the assay with E. coli (Ec) was in the range of 8 to 32 µg/mL. The IC50 in assay [1] was 0.5 to 1 µM; in assay [2], at least 1 µM.
Turning to `NC[C@H]1[C@@H]2CCN(C(=O)Nc3ccn(-c4ccc(CN5C[C@@H]6[C@@H](N)[C@@H]6C5)cc4)c(=O)n3)C[C@H]12` [Compound 50], the “E. coli + bicarb MIC” value in the assay on E. coli (Ec) is given as “+++ (An MIC value (μg/mL) that is less than 8 μg/mL)”. Also, the IC50 in assay [1] and in assay [2] was at least 1 µM each time.
Take `NC[C@H]1[C@@H]2CCN(C(=O)Nc3ccn(-c4ccc(CN5C[C@@H]6[C@@H](N)[C@@H]6C5)cc4)c(=O)n3)C[C@H]12` [Compound 51]: the “E. coli + bicarb MIC” value in the assay with E. coli (Ec) is reported as “+ (An MIC (μg/mL) value that is 32 μg/mL or greater)”. The IC50 in assay [1] and in assay [2] was at least 1 µM in each case.
Consider `N[C@@H]1[C@H]2CN(Cc3ccc(-n4ccc(NC(=O)N5CCC(C6OCCC[C@@H]6N)CC5)nc4=O)cc3)C[C@@H]12` (stereo partly drawn) [Compound 52], for which the MIC with E. coli (Ec) was under 8 µg/mL. The IC50 in assay [1] and in assay [2] was at least 1 µM throughout.
As to `C[C@](N)(CO)C(=O)N1CCN(C(=O)Nc2ccn(-c3ccc(CN4C[C@@H]5[C@@H](CN)[C@@H]5C4)cc3)c(=O)n2)CC1` [Compound 69], the MIC in the assay with E. coli (Ec) was under 8 µg/mL. For the same compound, the IC50 in assay [1] was under 0.5 µM; in assay [2], at least 1 µM.
For the compound `NC[C@@H]1[C@H]2CN(Cc3ccc(-n4ccc(NC(=O)N5CCN(C(=O)C6(CN)CC6)CC5)nc4=O)cc3)C[C@@H]12` [Compound 70], in the assay on E. coli (Ec), the MIC was under 8 µg/mL. Also, the IC50 in assay [1] was at least 1 µM.
In the case of `CC(C)(N)C(=O)N1CCN(C(=O)Nc2ccn(-c3ccc(CN4CC5CC5(CN)C4)cc3)c(=O)n2)CC1` (stereo not drawn) [Compound 71], the MIC with E. coli (Ec) is under 8 µg/mL. Further, the figures for the IC50 in assay [1] and in assay [2] were under 0.5 µM and at least 1 µM, respectively.
Take `CC(C)(N)C(=O)N1CCN(C(=O)Nc2ccn(-c3ccc(CN4CC[C@@H]5[C@@H](CN)[C@@H]5C4)cc3)c(=O)n2)CC1` [Compound 72]: in the assay on E. coli (Ec), the minimum inhibitory concentration (MIC) was under 8 µg/mL. Further, the IC50 is under 0.5 µM in assay [1] and at least 1 µM in assay [2].
Turning to `CC(C)(N)C(=O)N1CCN(C(=O)Nc2ccn(-c3ccc(CN4C[C@H]5CNC[C@H]5C4)cc3)c(=O)n2)CC1` [Compound 76], the MIC in the assay with E. coli (Ec) was under 8 µg/mL. Also, the IC50 in assay [1] is under 0.5 µM; in assay [2] it was at least 1 µM.
On to `CC(C)(N)C(=O)N1CCN(C(=O)Nc2ccn(-c3ccc(CN4CC[C@H]5NCC[C@H]5C4)cc3)c(=O)n2)CC1` [Compound 77], for which the MIC in the assay with E. coli (Ec) is under 8 µg/mL. Further, the IC50 in assay [1] is under 0.5 µM; in assay [2], at least 1 µM.
In the case of `CC(C)(N)C(=O)N1CCN(C(=O)Nc2ccn(-c3ccc(CN4CCC5(CCNCC5)CC4)cc3)c(=O)n2)CC1` [Compound 82], the MIC in the assay on E. coli (Ec) is under 8 µg/mL. Further, the IC50 was under 0.5 µM in assay [1] and at least 1 µM in assay [2].
With `CC(C)(N)C(=O)N1CCN(C(=O)Nc2ccn(-c3ccc(CCN4C[C@@H]5[C@@H](N)[C@@H]5C4)cc3)c(=O)n2)CC1` [Compound 84], the MIC with E. coli (Ec) was over 32 µg/mL. In assay [1], the IC50 is at least 1 µM.
Take `C[C@](N)(CO)C(=O)N1CCN(C(=O)Nc2ccn(-c3ccc(CCN4C[C@@H]5[C@@H](N)[C@@H]5C4)cc3)c(=O)n2)CC1` [Compound 85]: the MIC with E. coli (Ec) is over 32 µg/mL. The IC50 in assay [1] was at least 1 µM.
